# Reference: patent publication US5137892A, “Quinoline, naphthyridine and pyridobenzoxazine derivatives” (Abbott Laboratories, priority 1990, dated 1992)
# Where two headings read alike, the source gives them in different places.
# What was measured:
# [1] = tested on: Pseudomonas aeruginosa K799/WT; assay: In Vitro Antibacterial Activity, agar dilution MIC; type: cell-based; settings: P. aeruginosa K799/WT; BHI agar dilution, 20-24 hours; unit assumed
# Method: (§1) The activity of the compounds of the present invention was tested against a wide variety of bacteria using standard assay procedures. Minimum inhibitory concentrations (MICs) were determined by the agar dilution method, described below, using Brain Heart Infusion agar.
# (§2) Twelve petri dishes were prepared, each containing successive aqueous 2-fold dilutions of the test compounds mixed with 10 mL of sterilized Brain Heart Infusion (BHI) agar. Each plate was inoculated with 100-fold (or 10-fold, for slow-growing strains such as Micrococcus and Streptococcus) dilutions of up to 32 different microorganisms using a Steers replicator block calibrated to deliver approximately 10^4 colony forming units (CFUs). The inoculated plates were incubated at about 35°-37° C. for approximately 20-24 hours. In addition, a control plate, using BHI agar containing no test compound, was prepared and incubated at the beginning and at the end of each test. Ciprofloxacin was used as the reference antibiotic.
# (§3) The MIC was defined as the lowest concentration of test compound yielding no growth (a slight haze or sparsely isolated colonies at the inoculum spot as compared to the growth control contaning no test compound.
# [2] = tested on: Streptococcus bovis A5169; assay: In Vitro Antibacterial Activity, agar dilution MIC; type: cell-based; settings: S. bovis A5169; BHI agar dilution, 20-24 hours; unit assumed
# Method: as §1, §2, §3
# [3] = tested on: Streptococcus pyogenes 930 CONST; assay: In Vitro Antibacterial Activity, agar dilution MIC; type: cell-based; settings: S. pyogenes 930 CONST; BHI agar dilution, 20-24 hours; unit assumed
# Method: as §1, §2, §3
# [4] = tested on: Staphylococcus aureus ATCC 6538P; assay: In Vitro Antibacterial Activity, agar dilution MIC; type: cell-based; settings: S. aureus ATCC 6538P; BHI agar dilution, 20-24 hours; unit assumed
# Method: as §1, §2, §3
# Escherichia coli H560 = assay: In Vitro Antibacterial Activity, agar dilution MIC; type: cell-based; settings: E. coli H560; BHI agar dilution, 20-24 hours; unit assumed
# Method: as §1, §2, §3
# [5] = tested on: Staphylococcus aureus 642A; assay: In Vitro Antibacterial Activity, agar dilution MIC; type: cell-based; settings: S. aureus 642A; BHI agar dilution, 20-24 hours; unit assumed
# Method: as §1, §2, §3
# [6] = tested on: Staphylococcus aureus A5177; assay: In Vitro Antibacterial Activity, agar dilution MIC; type: cell-based; settings: S. aureus A5177; BHI agar dilution, 20-24 hours; unit assumed
# Method: as §1, §2, §3
# [7] = tested on: Micrococcus luteus ATCC 4698; assay: In Vitro Antibacterial Activity, agar dilution MIC; type: cell-based; settings: M. luteus ATCC 4698; BHI agar dilution, 20-24 hours; unit assumed
# Method: as §1, §2, §3
# [8] = tested on: Pseudomonas aeruginosa A5007; assay: In Vitro Antibacterial Activity, agar dilution MIC; type: cell-based; settings: P. aeruginosa A5007; BHI agar dilution, 20-24 hours; unit assumed
# Method: as §1, §2, §3
# [9] = tested on: Enterococcus faecium ATCC 8043; assay: In Vitro Antibacterial Activity, agar dilution MIC; type: cell-based; settings: E. faecium ATCC 8043; BHI agar dilution, 20-24 hours; unit assumed
# Method: as §1, §2, §3
# [10] = tested on: Providencia stuartii CMX 640; assay: In Vitro Antibacterial Activity, agar dilution MIC; type: cell-based; settings: P. stuartii CMX 640; BHI agar dilution, 20-24 hours; unit assumed
# Method: as §1, §2, §3
# Acinetobacter SP CMX 699 = assay: In Vitro Antibacterial Activity, agar dilution MIC; type: cell-based; settings: BHI agar dilution, 20-24 hours, unit assumed
# Method: as §1, §2, §3
# [11] = tested on: Staphylococcus aureus CMX 553; assay: In Vitro Antibacterial Activity, agar dilution MIC; type: cell-based; settings: S. aureus CMX 553; BHI agar dilution, 20-24 hours; unit assumed
# Method: as §1, §2, §3
# [12] = tested on: Klebsiella pneumoniae ATCC 8045; assay: In Vitro Antibacterial Activity, agar dilution MIC; type: cell-based; settings: K. pneumoniae ATCC 8045; BHI agar dilution, 20-24 hours; unit assumed
# Method: as §1, §2, §3
# Escherichia coli SS = assay: In Vitro Antibacterial Activity, agar dilution MIC; type: cell-based; settings: E. coli SS; BHI agar dilution, 20-24 hours; unit assumed
# Method: as §1, §2, §3
# [13] = tested on: Staphylococcus aureus NCTC 10649; assay: In Vitro Antibacterial Activity, agar dilution MIC; type: cell-based; settings: S. aureus NCTC 10649; BHI agar dilution, 20-24 hours; unit assumed
# Method: as §1, §2, §3
# Escherichia coli DC-2 = assay: In Vitro Antibacterial Activity, agar dilution MIC; type: cell-based; settings: E. coli DC-2; BHI agar dilution, 20-24 hours; unit assumed
# Method: as §1, §2, §3
# Staphylococcus aureus 45 = assay: In Vitro Antibacterial Activity, agar dilution MIC; type: cell-based; settings: S. aureus 45; BHI agar dilution, 20-24 hours; unit assumed
# Method: as §1, §2, §3
# [14] = tested on: Staphylococcus aureus 45 RAR2; assay: In Vitro Antibacterial Activity, agar dilution MIC; type: cell-based; settings: S. aureus 45 RAR2; BHI agar dilution, 20-24 hours; unit assumed
# Method: as §1, §2, §3
# [15] = tested on: Streptococcus agalactaciae CMX 508; assay: In Vitro Antibacterial Activity, agar dilution MIC; type: cell-based; settings: S. agalactaciae CMX 508; BHI agar dilution, 20-24 hours; unit assumed
# Method: as §1, §2, §3
# [16] = tested on: Staphylococcus aureus NCTC 10649; assay: In Vivo Antibacterial Activity, protection of CF-1 female mice from bacterial challenge; parameters: species or system CF-1 female mice infected with Staphylococcus aureus; settings: 100 times the LD50 i.p., dosed at 1 and 5 hr after infection, mortality on sixth day
# Method: The in vivo antibacterial activity of one of the compounds of the present invention was determined by studying the protection of CF-1 female mice from bacterial challenge. The test compound was 7-(2-dimethylaminomethyl-1,4-dioxa-7-azaspiro[4.4]non-7-yl)-6-fluoro-1-(2,4-difluorophenyl)-1,8-naphthyridine-3-carboxylic acid (prepared in Example 445). Aqueous solutions of the compound were made by dissolving it in dilute NaOH and diluting with distilled water to the desired volume.
# The median lethal dose of the test organism was then determined as follows: After 18 hours incubation, a culture of Staphylococcus aureus NCTC 10649 was serially diluted by using 10-fold dilutions in 5% (w/v) hog gastric mucin. 0.5 mL samples, of dilution from 10^-1 to 10^-8, were injected intraperitoneally into mice. The LD50 for the test organism was calculated from the cumulative mortalities on the sixth day by the using the Reed and Muench procedure (Reed, L. J., and H. Muench, Amer. J. Hygiene, 27, 493 (1938)).
# The 18 hour culture of the test organism was then diluted in 5% (w/v) hog gastric mucin to obtain 100 times the LD50, and 0.5 mL was injected intraperitoneally into mice. The mice were treated subcutaneously or orally with a specific amount of the test compound divided equally to be administered at 1 and 5 hr after infection. […]
structure (smiles),measurement,setting,value
CN(C)CC1COC2(CCN(c3nc4c(cc3F)c(=O)c(C(=O)O)cn4-c3ccc(F)cc3F)C2)O1 (stereo not shown) [Example 445],MIC values,[1],12.5 µg/mL
same,MIC values,[2],1.56 µg/mL
same,MIC values,[3],0.78 µg/mL
same,MIC values,[4],0.2 µg/mL
same,MIC values,Escherichia coli H560,1.56 µg/mL
same,MIC values,[5],0.39 µg/mL
same,MIC values,[6],0.39 µg/mL
same,MIC values,[7],12.5 µg/mL
same,MIC values,[8],12.5 µg/mL
same,MIC values,[9],1.56 µg/mL
same,MIC values,[10],> 100 µg/mL
same,MIC values,Acinetobacter SP CMX 699,6.2 µg/mL
same,MIC values,[11],0.39 µg/mL
same,MIC values,[12],1.56 µg/mL
same,MIC values,Escherichia coli SS,0.2 µg/mL
same,MIC values,[13],0.2 µg/mL
same,MIC values,Escherichia coli DC-2,12.5 µg/mL
same,MIC values,Staphylococcus aureus 45,0.39 µg/mL
same,MIC values,[14],0.78 µg/mL
same,MIC values,[15],1.58 µg/mL
same,ED50,"[16]; NCTC10649, 144 h, oral, read-out: oral ED50",6 mg/kg
same,ED50,"[16]; NCTC10649, sc, 144 h, subcutaneous, read-out: subcutaneous ED50",5 mg/kg
